Measured values reported in patent US6962920B2, “Pyrimidine derivatives and methods of making and using these derivatives” (Duquesne University of the Holy Ghost, priority 1992, dated 2005).
Like-named read-outs stand apart in the source and are kept apart here.

Assays:
FaDu = test: Growth inhibition of FaDu human squamous carcinoma cell line; assay type: cell-based
human recombinant TS = human recombinant TS (Homo sapiens, UniProt P04818); test: Inhibition of human recombinant TS; assay type: biochemical; details: Table 17; read-out: Human REC TS IC50
R30dm cells = test: Growth inhibition of R30dm subline (decreased polyglutamate synthase); assay type: cell-based; details: Homo sapiens
[1] = target: T1, CCRF-CEM human leukemia cell folylpolyglutamate synthetase (Homo sapiens, UniProt Q05932); test: Substrate activity for CCRF-CEM folylpolyglutamate synthetase; assay type: biochemical; details: Table 18
T1 construct: substrates for human leukemia cell CCRF-CEM folylpolyglutamate synthetase; endogenous in cells; host or cells: CCRF-CEM human leukemia cells
T1 sequence (Q05932 43-587): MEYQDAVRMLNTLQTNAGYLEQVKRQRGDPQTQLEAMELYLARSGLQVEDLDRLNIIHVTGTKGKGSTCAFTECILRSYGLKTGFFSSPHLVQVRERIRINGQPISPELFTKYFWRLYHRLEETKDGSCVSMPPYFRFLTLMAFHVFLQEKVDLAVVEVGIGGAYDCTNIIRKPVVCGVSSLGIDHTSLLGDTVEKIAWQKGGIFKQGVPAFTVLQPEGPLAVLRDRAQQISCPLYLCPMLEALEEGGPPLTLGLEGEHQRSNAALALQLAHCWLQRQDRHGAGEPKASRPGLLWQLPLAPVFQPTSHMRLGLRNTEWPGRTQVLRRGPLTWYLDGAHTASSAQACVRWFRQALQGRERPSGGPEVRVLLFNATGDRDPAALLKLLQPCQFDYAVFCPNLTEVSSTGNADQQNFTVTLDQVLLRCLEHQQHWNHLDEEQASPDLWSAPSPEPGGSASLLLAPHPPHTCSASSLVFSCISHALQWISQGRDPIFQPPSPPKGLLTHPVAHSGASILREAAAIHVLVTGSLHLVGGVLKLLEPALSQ
Protocol: (§1) Aminopterin is a classical 2,4-diamino antifolate substrate.
(§2) Compounds 33 and 34 were also evaluated for their substrate activity in CCRF-CEM human leukemia folylpolyglutamate synthetase; the compounds were compared against aminopterin.

A253 = test: Growth inhibition of A253 human squamous carcinoma cell line; assay type: cell-based; details: Table 19, continuous exposure (0 to 120 hours)
Protocol: The performance of these compounds was evaluated against MTX.

L. casei DHFR = L. casei DHFR (Lacticaseibacillus casei, UniProt P00381); test: Inhibition of Lactobacillus casei DHFR; assay type: biochemical
CCRF-CEM cells = test: Growth inhibition of CCRF-CEM human leukemia cells, continuous exposure; assay type: cell-based
CCRF-CEM DHFR = target: T2, CCRF-CEM DHFR (Homo sapiens, UniProt P00374); test: Inhibition of DHFR isolated from human CCRF-CEM leukemic cells; assay type: biochemical; details: Table 17
T2 construct: DHFR isolated from human CCRF-CEM leukemic cells; endogenous in cells; host or cells: CCRF-CEM human leukemic cells

FaDu cells = test: Protection of FaDu cells from growth inhibition by hypoxanthine, thymidine, leucovorin; assay type: cell-based, human
Protocol: Compound 113-161 was also tested for its ability to inhibit the growth of FaDu human squamous cell carcinoma cell lines. Performance was tested against MTX using hypoxanthine (Hx) and Thymidine (TdR).
Protection after 120 hours with di-LV was also determined. All of the tested compounds reversed inhibition with leucovorin.

Tg DHFR = target: T3, Tg DHFR (Toxoplasma gondii, UniProt Q07422); test: biochemical; assay type: biochemical
T3 sequence (Q07422 1-610): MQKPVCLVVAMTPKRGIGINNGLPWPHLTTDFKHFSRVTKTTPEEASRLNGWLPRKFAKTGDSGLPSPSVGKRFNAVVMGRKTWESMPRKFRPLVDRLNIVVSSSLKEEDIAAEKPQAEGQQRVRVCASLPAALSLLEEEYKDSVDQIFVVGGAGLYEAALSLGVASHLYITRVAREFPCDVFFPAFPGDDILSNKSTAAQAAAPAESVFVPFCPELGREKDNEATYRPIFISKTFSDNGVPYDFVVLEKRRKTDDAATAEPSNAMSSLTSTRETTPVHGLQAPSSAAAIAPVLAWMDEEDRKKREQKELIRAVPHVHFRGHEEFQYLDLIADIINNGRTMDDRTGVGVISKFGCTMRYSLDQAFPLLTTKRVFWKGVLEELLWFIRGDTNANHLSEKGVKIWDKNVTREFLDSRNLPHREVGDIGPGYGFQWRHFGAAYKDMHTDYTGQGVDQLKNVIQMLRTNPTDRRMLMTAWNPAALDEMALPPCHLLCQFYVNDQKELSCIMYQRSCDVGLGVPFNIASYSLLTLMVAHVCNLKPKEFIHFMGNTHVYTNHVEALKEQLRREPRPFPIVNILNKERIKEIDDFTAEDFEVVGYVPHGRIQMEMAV
Protocol: (§3) The selectivity ratio is a measure of the selectivity of a compound for Pc DHFR or Tg DHFR and is expressed as the IC50 value of the DHFR from rate liver (RL) divided by the IC50 value of either the Pc DHFR or the Tg DHFR, depending on which organism the compounds are being tested against. For example, the selectivity ratio of a compound is calculated by the following formula: [formula]

RL DHFR = target: T4, RL DHFR (Rattus norvegicus, UniProt Q920D2); test: Inhibition of DHFR from rat liver; assay type: biochemical; details: Table 25; read-out: Inhibitor Concentrations (IC50) rlDHFR
T4 construct: Toxoplasmosis gondii (Tg) and rat liver (RL); from tissue; host or cells: rat liver
T4 sequence (Q920D2 1-187): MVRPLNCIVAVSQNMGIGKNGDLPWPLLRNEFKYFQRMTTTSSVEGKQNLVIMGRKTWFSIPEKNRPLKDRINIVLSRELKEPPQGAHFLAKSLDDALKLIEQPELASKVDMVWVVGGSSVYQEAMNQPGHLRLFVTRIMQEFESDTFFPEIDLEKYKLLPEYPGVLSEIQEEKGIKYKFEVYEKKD
Protocol: as §3

Pc DHFR [2] = target: T5, Pc DHFR (Pneumocystis carinii, UniProt P16184); assay type: biochemical
T5 sequence (P16184 1-206): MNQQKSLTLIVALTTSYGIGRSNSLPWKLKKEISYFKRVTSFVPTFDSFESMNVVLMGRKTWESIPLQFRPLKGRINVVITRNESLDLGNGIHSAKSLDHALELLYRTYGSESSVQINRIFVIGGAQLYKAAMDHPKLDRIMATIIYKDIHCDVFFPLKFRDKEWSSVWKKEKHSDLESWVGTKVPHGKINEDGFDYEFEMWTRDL
Protocol: as §3

Pc DHFR [3] = target: T5, Pc DHFR; test: biochemical
[4] = target: E-coli thymidylate synthase (ecTS) (Escherichia coli, UniProt P0A884); test: Inhibition of E. coli thymidylate synthase; assay type: biochemical; details: b353; read-out: inhibition of TS from E. coli
Protocol: All of the compounds were tested against human cells, L. casei, E. coli, and S. faecium.

R1 cells = test: Growth inhibition of R1 subline (increased DHFR); assay type: cell-based; details: Homo sapiens
R2 cells = test: Growth inhibition of R2 subline (MTX-transport deficient); assay type: cell-based; details: Homo sapiens
L. casei TS = L. casei TS (Lacticaseibacillus casei, UniProt P00469); test: Inhibition of thymidylate synthase (TS), L. casei; assay type: biochemical, Lactobacillus casei
TS from P. carinii = TS from P. carinii (Pneumocystis carinii, UniProt P13100); test: Inhibition of P. carinii TS; assay type: biochemical; details: b353
[5] = substrate: Nc1nc(N)c2c(CCc3ccc(C(=O)N[C@@H](CCC(=O)O)C(=O)O)cc3)coc2n1; test: Substrate activity for CCRF-CEM folylpolyglutamate synthetase; assay type: biochemical, human; details: other: Table 18; substrate for FPGS
Protocol: as §1, §2

[6] = substrate: Nc1nc(N)c2nc(CNc3ccc(C(=O)N[C@@H](CCC(=O)O)C(=O)O)cc3)cnc2n1; test: as above; assay type: biochemical, human; details: substrate for FPGS
Protocol: as §1, §2

[7] = Table 15, continuous (120 hours) exposure, read-out: Growth inhibition EC50, FaDu
[8] = Table 19, continuous exposure (0 to 120 hours), read-out: Growth inhibition EC50, CCRF-CEM
[9] = read-out: Growth inhibition EC50

L. casei DHFR, sequence (P00381 whole entry): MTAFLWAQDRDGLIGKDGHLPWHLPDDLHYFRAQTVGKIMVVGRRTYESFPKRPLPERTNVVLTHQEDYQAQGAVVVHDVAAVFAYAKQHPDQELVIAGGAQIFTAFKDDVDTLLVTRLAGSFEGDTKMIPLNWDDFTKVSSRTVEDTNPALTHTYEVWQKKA
T2 sequence (P00374 whole entry): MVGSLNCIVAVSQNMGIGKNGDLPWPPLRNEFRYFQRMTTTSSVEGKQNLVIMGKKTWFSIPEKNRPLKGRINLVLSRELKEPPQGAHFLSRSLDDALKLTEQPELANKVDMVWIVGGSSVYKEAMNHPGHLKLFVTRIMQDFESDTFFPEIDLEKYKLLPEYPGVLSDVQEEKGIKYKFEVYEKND
human recombinant TS, sequence (P04818 whole entry): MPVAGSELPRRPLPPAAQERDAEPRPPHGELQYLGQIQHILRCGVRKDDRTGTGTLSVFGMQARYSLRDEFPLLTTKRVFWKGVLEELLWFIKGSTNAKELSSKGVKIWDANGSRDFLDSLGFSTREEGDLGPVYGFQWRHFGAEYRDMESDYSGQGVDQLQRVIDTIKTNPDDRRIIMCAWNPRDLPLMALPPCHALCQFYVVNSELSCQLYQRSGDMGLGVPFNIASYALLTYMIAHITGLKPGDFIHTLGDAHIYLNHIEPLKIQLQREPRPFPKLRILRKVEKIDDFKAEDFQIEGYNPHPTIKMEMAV
TS from P. carinii, sequence (P13100 whole entry): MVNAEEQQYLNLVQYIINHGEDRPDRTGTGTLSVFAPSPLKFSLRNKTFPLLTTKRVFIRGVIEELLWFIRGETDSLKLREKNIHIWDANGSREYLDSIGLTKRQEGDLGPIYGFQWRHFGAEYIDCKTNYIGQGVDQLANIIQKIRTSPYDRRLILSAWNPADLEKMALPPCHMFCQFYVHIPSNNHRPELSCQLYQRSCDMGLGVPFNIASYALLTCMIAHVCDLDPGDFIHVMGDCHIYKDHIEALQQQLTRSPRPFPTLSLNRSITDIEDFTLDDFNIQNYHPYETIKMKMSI
E-coli thymidylate synthase (ecTS), sequence (P0A884 whole entry): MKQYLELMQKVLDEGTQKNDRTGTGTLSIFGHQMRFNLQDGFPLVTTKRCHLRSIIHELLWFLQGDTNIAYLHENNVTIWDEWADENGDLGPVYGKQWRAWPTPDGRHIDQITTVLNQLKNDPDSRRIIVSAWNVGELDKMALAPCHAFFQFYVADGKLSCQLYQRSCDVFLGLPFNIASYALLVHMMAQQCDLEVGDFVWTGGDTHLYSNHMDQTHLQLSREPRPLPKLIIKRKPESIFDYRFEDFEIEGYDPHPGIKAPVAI
L. casei TS, sequence (P00469 whole entry): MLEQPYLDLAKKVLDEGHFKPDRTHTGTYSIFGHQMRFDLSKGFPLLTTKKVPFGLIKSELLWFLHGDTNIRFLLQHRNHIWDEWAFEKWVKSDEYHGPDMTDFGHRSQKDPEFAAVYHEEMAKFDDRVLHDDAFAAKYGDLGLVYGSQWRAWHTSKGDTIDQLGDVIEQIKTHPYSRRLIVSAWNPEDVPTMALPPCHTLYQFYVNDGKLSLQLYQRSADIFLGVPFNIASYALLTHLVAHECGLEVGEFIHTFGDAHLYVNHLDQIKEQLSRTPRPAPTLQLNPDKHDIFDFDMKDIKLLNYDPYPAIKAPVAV

Q: How did the EC50 (FaDu; [7]) turn out when `CN(Cc1ccc(S(=O)(=O)N2CCOCC2)cc1)c1ccc2c3c(cccc13)C(=N)N2` [AG331] was run?
A: 1000 ± 100 nM

Q: What does the source list for `Nc1nc(N)c2c(CCc3ccc(C(=O)N[C@@H](CCC(=O)O)C(=O)O)cc3)coc2n1` [Compound 33, N-[4-[2-(2,4-diaminofuro[2,3-d]pyrimidin-5-yl)ethyl]-benzoyl]-L-glutamic acid]?
A: IC50 (human recombinant TS): 220000 nM; EC50 (R30dm cells; Table 19, continuous exposure (0 to 120 hours), read-out: Growth inhibition EC50, R30DM): 4250 nM; EC50 (FaDu; Homo sapiens, FaDu, Table 19, continuous exposure (0 to 120 hours), read-out: Growth inhibition EC50, FaDu): 18 ± 20 nM; Vmax(rel) [1]: 0.65 ± 0.01; EC50 (A253): 540 ± 90 nM; IC50 (L. casei DHFR; Table 17, read-out: L. casei DHFR IC50): 100 nM; EC50 (CCRF-CEM cells; [8]): 290 nM; IC50 (CCRF-CEM DHFR): 250 nM

Q: What does the source list for `Nc1nc(N)c2c(CNCc3ccc(C(=O)N[C@@H](CCC(=O)O)C(=O)O)cc3)coc2n1` [Compound 34]?
A: IC50 (human recombinant TS): 63000 nM; Vmax(rel) [1]: 0.6; EC50 (CCRF-CEM cells; [8]): 48000 nM; IC50 (CCRF-CEM DHFR): 30500 nM

Q: Which “protection study with hypoxanthine (Hx) and thymidine (TdR)” value (FaDu cells) does the source give for `Cc1nc(N)nc2[nH]cc(CCc3ccc(C(=O)N[C@@H](CCC(=O)O)C(=O)O)cc3)c12` [Compound 113-161] here?
A: almost completely reversed the TS inhibition

Q: Which IC50 (Tg DHFR; Table 16, read-out: Tg DHFR IC50) does the source give for `Nc1nc(N)c2c(COc3ccc4ccccc4c3)coc2n1` [Compound 164, 2,4-Diamino-5-[(2-naphthoxy)methyl]furo[2,3-d]pyrimidine] here?
A: > 42000 nM

Q: And the IC50 (Tg DHFR; Table 25, read-out: Inhibitor Concentrations (IC50) tgDHFR)?
A: > 42000 nM

Q: And the IC50 (RL DHFR)?
A: 60300 nM

Q: And the Selectivity ratio rl/pc (Pc DHFR [2]; IC50 rlDHFR/IC50 pcDHFR)?
A: 4.31

Q: And the “Selectivity Ratio RL/Pc” value (Pc DHFR [2]; Table 16)?
A: 4.31

Q: What about the IC50 (Pc DHFR [3]; Table 16, read-out: Pc DHFR IC50) of the same molecule?
A: 14000 nM

Q: And the IC50 (Pc DHFR [3]; Table 25, read-out: Inhibitor Concentrations (IC50) pcDHFR)?
A: 14000 nM

Q: For `Nc1nc2[nH]cc(CNc3ccc(C(=O)N[C@@H](CCC(=O)O)C(=O)O)cc3)c2c(=O)[nH]1` [Compound 407], which IC50 [4] is on record?
A: > 12000 nM

Q: What about the EC50 (R1 cells; Table 23, continuous exposure, read-out: Growth inhibition EC50, R1 (↑ DHFR)) of the same molecule?
A: 200 ± 20 nM

Q: What about the EC50 (R30dm cells; Table 23, continuous exposure, read-out: Growth inhibition EC50, R30dm (decreased FPGS)) of the same molecule?
A: 120 ± 10 nM

Q: What about the EC50 (R2 cells; Table 23, continuous exposure, read-out: Growth inhibition EC50, R2 (↓ transport)) of the same molecule?
A: 310 ± 30 nM

Q: And the IC50 (L. casei TS)?
A: 46000 nM

Q: What about the IC50 (L. casei DHFR) of the same molecule?
A: 6900 nM

Q: And the IC50 (TS from P. carinii)?
A: 5800 nM

Q: And the EC50 (CCRF-CEM cells; Table 23, continuous exposure, read-out: Growth inhibition EC50, CEM (sensitive))?
A: 79 nM

Q: How did the EC50 (R1 cells; [9]) turn out when `CN(Cc1cnc2nc(N)nc(N)c2n1)c1ccc(C(=O)N[C@@H](CCC(=O)O)C(=O)O)cc1` [MTX, methotrexate, reference compound] was run?
A: 675 ± 35 nM

Q: What about the EC50 (R1 cells; read-out: Growth inhibition EC50, R1) of the same molecule?
A: 595 ± 5 nM

Q: And the EC50 (R1 cells; read-out: Growth inhibition EC50, R1 (↑ DHFR))?
A: 6445 ± 55 nM

Q: And the EC50 (FaDu; Homo sapiens, FaDu, 120 h, read-out: Growth inhibition EC50, FaDu)?
A: 31 ± 2 nM

Q: And the EC50 (FaDu; Homo sapiens, FaDu, read-out: Growth inhibition EC50)?
A: 11.3 ± 1.8 nM

Q: And the EC50 (FaDu; Homo sapiens, FaDu, read-out: Growth inhibition EC50, FaDu)?
A: 17 ± 2 nM

Q: And the EC50 (R2 cells; [9])?
A: 1600 ± 100 nM

Q: What about the EC50 (R2 cells; read-out: Growth inhibition EC50, R2) of the same molecule?
A: 3100 ± 100 nM

Q: What about the EC50 (R2 cells; read-out: Growth inhibition EC50, R2 (↓ transport)) of the same molecule?
A: 2350 ± 550 nM

Q: For `C#CCN(Cc1ccc2nc(N)[nH]c(=O)c2c1)c1ccc(C(=O)N[C@@H](CCC(=O)O)C(=O)O)cc1` [PDDF], which EC50 (FaDu; [7]) is on record?
A: 1700 ± 200 nM

B1: CCRF-CEM human leukemia cell folylpolyglutamate synthetase (Homo sapiens) (protein)
chain: T1 sequence (Q05932 43-587)
notes: substrates for human leukemia cell CCRF-CEM folylpolyglutamate synthetase; endogenous in cells; host or cells: CCRF-CEM human leukemia cells
Q: How did the Km [5] turn out when B1 was run?
A: 8.5 ± 2.1 µM

Q: And the Km ([6]; other: Table 10)?
A: 4.3 ± 0.2 µM

Q: And the Km ([6]; other: Table 18)?
A: 4.8 ± 0.7 µM
